The values that follow come from USRE33699E, “Growth hormone-releasing factor analogs” (International Minerals & Chemical Corp., priority 1990, dated 1991).

In this assay the test system is rat pituitary cells. The assay is described as follows: Bioassay of hGRF analogs: stimulation of growth hormone release in rat pituitary cells in tissue culture. Type of assay: cell-based. The following applies: for Dose Needed to Release 2.01 μg/ml of GH: 2.01 μg/ml = GH released at the ED50 of hGRF; for Dose Needed to Release 2.01 μg/ml of GH / Relative Maximum Activity (% of hGRF): from ALLFIT curves; for Potency: (ED50 of hGRF)/(Dose required to give same response as ED50 of hGRF). An excerpt:
The assay for biological activity, which is based on the ability to stimulate release of growth hormone in rat pituitary cells in tissue culture, has been described in detail (Culler, M. D.; Kenjo, T.: Obara, N.; Arimuar, A., Stimulation of cAMP. Accumulation by Human Pancreatic GH-Releasing Factor(1-44). Am. J. Physiol. 1984, 247 (Endocrinol.Metab. 10). E609-E615.
ALLFIT, the 4-parameter logistic curve fitting program available from the Biomedical Computer Technology Information Center, Vanderbilt Medical Center, Nashville Tenn., was used to determine ED50 and maximal stimulated values from the data. In several instances, the amount of GH released reached a maximum value and decreased with further increasing doses of the hGRF analogs. To simplify the data analysis, these values were not used in the calculations. The calculated maximal responses, the doses of the analog required to release the amount of GH released at the ED50 of the standard (hGRF) and the potencies of the analogs relative to hGRF, are given in Table 2. Generally all novel analogs were fully active and were able to stimulate the release of growth hormone with maximal values of GH release being within 80% of the value for natural hGRF.

Square brackets hold non-standard residues; d marks the D form. Peptide text beside a SMILES is read from it. Nle = CCCC[C@H](N)C(=O)O

As to `CCCC[C@H](NC(=O)[C@@H](NC(=O)[C@H](CC(N)=O)NC(=O)[C@H](CCC(N)=O)NC(=O)[C@H](CC(C)C)NC(=O)[C@H](CC(C)C)NC(=O)[C@H](CCCCN)NC(=O)[C@H](CCCNC(=N)N)NC(=O)[C@H](C)NC(=O)[C@H](CO)NC(=O)[C@H](CC(C)C)NC(=O)[C@H](CCC(N)=O)NC(=O)CNC(=O)[C@H](CC(C)C)NC(=O)[C@@H](NC(=O)[C@H](CCCCN)NC(=O)[C@H](CCCNC(=N)N)NC(=O)[C@H](Cc1ccc(O)cc1)NC(=O)[C@H](CO)NC(=O)[C@H](CC(=O)O)NC(=O)[C@@H](NC(=O)[C@H](Cc1ccccc1)NC(=O)[C@@H](NC(=O)[C@H](C)NC(=O)[C@H](CC(N)=O)NC(=O)[C@H](C)NC(=O)[C@@H](N)Cc1ccc(O)cc1)[C@@H](C)CC)[C@@H](C)O)C(C)C)[C@@H](C)CC)C(=O)N[C@@H](CO)C(=O)N[C@@H](CCCNC(=N)N)C(=O)N[C@@H](CCC(N)=O)C(=O)N[C@@H](CCC(N)=O)C(N)=O` [[Asn^3,Asp^8,Asn^25,Nle^27]-hGRF(1-31)--NH2] (H-YANAIFTDSYRKVLGQLSARKLLQNI[Nle]SRQQ-NH2), the “Dose Needed to Release 2.01 μg/ml of GH” value is recorded as 12.05 nM, the Potency is 5% and the “Relative Maximum Activity (% of hGRF)” value is on record as 94 % of hGRF. The Potency (Asp^8, Asn^25, Nle^27 ]) is reported as 3%.
For the molecule `CCCC[C@H](NC(=O)[C@@H](NC(=O)[C@H](CC(=O)O)NC(=O)[C@H](CCC(N)=O)NC(=O)[C@H](CC(C)C)NC(=O)[C@H](CC(C)C)NC(=O)[C@H](CCCCN)NC(=O)[C@H](CCCNC(=N)N)NC(=O)[C@H](C)NC(=O)[C@H](CO)NC(=O)[C@H](CC(C)C)NC(=O)[C@H](CCC(N)=O)NC(=O)CNC(=O)[C@H](CC(C)C)NC(=O)[C@@H](NC(=O)[C@H](CCCCN)NC(=O)[C@H](CCCNC(=N)N)NC(=O)[C@H](Cc1ccc(O)cc1)NC(=O)[C@H](CO)NC(=O)[C@H](CC(=O)O)NC(=O)[C@@H](NC(=O)[C@H](Cc1ccccc1)NC(=O)[C@@H](NC(=O)[C@H](C)NC(=O)[C@H](CC(=O)O)NC(=O)[C@H](C)NC(=O)[C@@H](N)Cc1ccc(O)cc1)[C@@H](C)CC)[C@@H](C)O)C(C)C)[C@@H](C)CC)C(=O)N[C@@H](CO)C(=O)N[C@@H](CCCNC(=N)N)C(=O)N[C@@H](CCC(N)=O)C(=O)N[C@@H](CCC(N)=O)C(N)=O` [[Asp^8, Nle^27]-hGRF(1-31)--NH2, [Asp^8,Nle^27]-hGRF(1-31)--NH2] (H-YADAIFTDSYRKVLGQLSARKLLQDI[Nle]SRQQ-NH2), the “Dose Needed to Release 2.01 μg/ml of GH” value was 0.39 nM, the Potency was 82% and the “Relative Maximum Activity (% of hGRF)” value was 109 % of hGRF.
`CCCC[C@H](NC(=O)[C@@H](NC(=O)[C@H](CC(N)=O)NC(=O)[C@H](CCC(N)=O)NC(=O)[C@H](CC(C)C)NC(=O)[C@H](CC(C)C)NC(=O)[C@H](CCCCN)NC(=O)[C@H](CCCNC(=N)N)NC(=O)[C@H](C)NC(=O)[C@H](CO)NC(=O)[C@H](CC(C)C)NC(=O)[C@H](CCC(N)=O)NC(=O)CNC(=O)[C@H](CC(C)C)NC(=O)[C@@H](NC(=O)[C@H](CCCCN)NC(=O)[C@H](CCCNC(=N)N)NC(=O)[C@H](Cc1ccc(O)cc1)NC(=O)[C@H](CO)NC(=O)[C@H](CC(N)=O)NC(=O)[C@@H](NC(=O)[C@H](Cc1ccccc1)NC(=O)[C@@H](NC(=O)[C@H](C)NC(=O)[C@H](CC(=O)O)NC(=O)[C@H](C)NC(=O)[C@@H](N)Cc1ccc(O)cc1)[C@@H](C)CC)[C@@H](C)O)C(C)C)[C@@H](C)CC)C(=O)N[C@@H](CO)C(=O)N[C@@H](CCCNC(=N)N)C(=O)N[C@@H](CCC(N)=O)C(=O)N[C@@H](CCC(N)=O)C(N)=O` [[Asn^25, Nle^27]-hGRF(1-31)--NH2, [Asn^25,Nle^27]-hGRF(1-31)--NH2] (H-YADAIFTNSYRKVLGQLSARKLLQNI[Nle]SRQQ-NH2): the “Dose Needed to Release 2.01 μg/ml of GH” value worked out at 0.12 nM, the Potency turned out to be 267% and the “Relative Maximum Activity (% of hGRF)” value is 96 % of hGRF.
